Data reported in article PMC12193058, “Discovery of Small Molecules Targeting Norovirus 3CL Protease by Multi-Stage Virtual Screening” (International Journal of Molecular Sciences, 2025).

Tests used:
[1] = test system: Murine norovirus (MNV, strain MNV-1.CW1); assay: Antiviral assay: MNV-infected RAW264.7 cells, protection from CPE (MTS); type: cell-based
Description: (§1) Murine norovirus (MNV, strain MNV-1. CW1) was propagated as previously described. HG23 cells and RAW 264.7 cells were maintained as described earlier. The cells were incubated at 37 °C in a humidified atmosphere of 5% CO2. To obtain virus stock, once full CPE was observed, the cells underwent two freeze–thaw cycles and the virus was harvested from the supernatants after centrifugation (10 min, 1000× g) and stored at […]. The viral titer was determined by endpoint titration.
(§2) The experiment was performed as previously described. In short, RAW264.7 cells (1 × 10^4 cells/well) were infected with MNV.CW1 in the presence of a dilution series of compounds. Antiviral activity and cytotoxicity were determined using a colorimetric assay using 3-(4,5-dimethylthiazol-2-yl)-5-(3-carboxymethoxyphenyl)-2-(4 sulfophenyl)-2H-tetrazolium (MTS). The 50% effective concentration (EC50) was defined as the compound concentration that protected 50% of the cells from CPE. The cell viability % was calculated as (ODtreated/ODCC) × […] and the 50% cytotoxic concentration (CC50) was defined as the compound concentration that reduces the number of viable cells by 50%. HuNoVGI.1replicon: The experiment was performed as described earlier with minor modifications. In short, HG23 cells (7.5 × 10^2 cells/well) were seeded into the wells of a 96-well plate without G418 (Geneticin Selective Antibiotic). After 24 h of incubation, the tested compounds were added. The cells were incubated for another 72 h; then they were collected for RNA load quantification using RT-qPCR [34]. The EC50 values were defined as the compound concentration that led to a 50% reduction in the relative HuNoV GI.1 replicon RNA levels.

[2] = Cytotoxicity assay (MTS) in non-infected cells; type: cell-based; details: mouse, RAW264.7 cells (non-infected); cytotoxic concentration to induce 50% death of non-infected cells; mean of two to three independent experiments
Description: as §1, §2

| Compound | EC50 [1] [µM] | CC50 [2] [µM] |
| --- | --- | --- |
| CCCCNC(=O)[C@H](Cc1ccccc1)NC(=O)N1CC(O)=Nc2ccccc21 [YY-6127] | > 50 | > 50 |
| COc1ccc(CCN(C(=O)Cc2nnc(O)c3ccccc23)[C@@H](C)C(N)=O)cc1 [YY-8610] | > 50 | > 50 |
| O=C(ON1C(=O)CCC1=O)[C@H](Cc1ccccc1)NC(=O)N1CC(O)=Nc2ccccc21 [YY-9242] | > 50 | > 50 |
| O=C(NCc1cccc(Cl)c1)[C@H](Cc1ccccc1)NC(=O)N1CC(O)=Nc2ccccc21 [YY-9773] | > 50 | > 50 |
| COc1ccc(CCNC(=O)[C@H](Cc2ccccc2)NC(=O)N2CC(O)=Nc3ccccc32)cc1 [YY-4204] | > 50 | > 50 |
| COc1cncc(C(NC(=O)c2cc(=O)[nH]c3ccccc23)[C@H]2C[C@H](O)C2)c1 (stereo partly shown) [YY-3656] | > 50 | > 50 |
| CC(C)C1C(O)=Nc2ccccc2N1C(=O)N[C@@H](Cc1ccccc1)C(=O)N[C@@H](CCC(N)=O)C(=O)O (stereo partly shown) [YY-4047] | > 50 | > 50 |
| COc1cc(NC(=O)[C@H](Cc2ccccc2)NC(=O)N2CC(O)=Nc3ccccc32)cc(OC)c1 [YY-9837] | > 50 | 45 |
| COc1ccc(C(CC(=O)N2CCc3c([nH]c4ccccc34)C2)c2oc(C)cc(=O)c2O)cc1O (stereo not shown) [YY-4958] | > 50 | > 50 |
| Cc1[nH][nH]c(=O)c1CC(=O)N1C[C@@H](c2ccccc2)O[C@@H](C(C)C)C1 [YY-0587] | > 50 | > 50 |
| O=C(NC1CCCc2ccccc21)[C@H](Cc1ccccc1)NC(=O)N1CC(O)=Nc2ccccc21 (stereo partly shown) [YY-3724] | > 50 | > 50 |
| COc1cc(C(CC(=O)NCC(=O)NCc2ccco2)c2oc(C)cc(=O)c2O)ccc1O (stereo not shown) [YY-0420] | > 50 | > 50 |
| CNC(=O)c1ccc(C)c(NC(=O)NCCN2CCNC2=O)c1 [YY-4095] | > 50 | > 50 |
| Cc1cc(N)n(CC(=O)N(Cc2cccnc2)Cc2ccc3c(c2)OCO3)n1 [YY-0744] | > 50 | > 50 |
| Cc1nc2ccc(NC(=O)N3CCNC(=O)C3CCO)cc2nc1C (stereo not shown) [YY-0809] | > 50 | > 50 |
| CCC(SC1=Nc2ccccc2C2=NC(=O)C(CCC(=O)NCc3ccc(F)cc3)N12)C(=O)Nc1cccc(OC)c1 (stereo not shown) [YY-0734] | > 50 | > 50 |
| CC1=NN=C(O)C1CC(=O)N/N=C/c1cccc(Br)c1 (stereo not shown) [YY-0182] | > 50 | > 50 |
